# Legend:
# [1] = In vitro EM field-triggered release of fluorescent DNA from nanoparticles embedded in hydrogel (matrigel) plugs; conditions: hydrogel plug; for release on higher power EM field: higher power 3 kW
# [2] = mouse, in vivo
# Experimental: Phenol red free, growth factor reduced matrigel (400 μl, BD Biosciences) was added to 100 μl of particles. To obtain 1.05% total concentration of particles, 75 μl of DNA-conjugated particles (approximately 3.3 mg/ml) were added to 25 μl of similar 50 nm particles (200 mg/ml, Chemicell). Gels (total volume 500 μl) were mixed at 4° C. to prevent gelation.
# Prior to injection of matrigel plugs into mice, approval from the Burnham Institute Animal Use Committee was obtained (AUF 05-054). In these experiments, 500 μl volumes were injected subcutaneous near the posterior mammary fat pad of six athymic nude mice and allowed to gel for 45 minutes. Prior to injection, animals were anesthetized with Avertin® (tribromoethanol) and remained under anesthesia during the remainder of the experiment. Three animals were treated with EM fields for two 5 minute doses, with 15 minutes between field applications (+EMF), while three were not treated (−EMF). […] To quantify penetration depth, 8 images of the tissue/phantom boundary were taken for each animal (3 animals per group, 24 images total). […] Using Metamorph software (Universal Imaging), green fluorescence on the tissue side of the boundary was quantified. For each fluorescent “object,” the area and distance from the tissue boundary was measured. An area-weighted average distance was calculated. […]
Substance,release on higher power EM field [1],release on low power EM field pulses ([1]; low power EM field pulses 0.55 kW),"increase of the average distance of fluorescence signal, EM field treated over unexposed controls [2]","release of fluorescein into surrounding buffer on repeated EM field pulses ([1]; EM field pulses 400 kHz, 1.25 kW, 5 minutes every 40 minutes)"
"5′-TCG CTG ATT CAA-3′ (DNA TCGCTGATTCAA; DNA, backbone and methylation of C not given here; fluorescent dye at 5' end, dye not named) [12 bp, FAM, 5′ FAM-labeled 12 bp complement DNA hybridized to 30 bp parent DNA on magnetite nanoparticles]",simultaneous release of both species,triggered release predominantly of FAM,–,–
"5′-CGCTGATTCAAGCCGACTAACCGC-3′ (DNA CGCTGATTCAAGCCGACTAACCGC; DNA, backbone and methylation of C not given here; fluorescent dye at 5' end, dye not named) [24 bp, HEX, 5′ HEX-labeled 24 bp complement DNA hybridized to 30 bp parent DNA on magnetite nanoparticles]",simultaneous release of both species,–,–,–
"5′-TGA TTC AAG CCG ACT AAC-3′ (DNA TGATTCAAGCCGACTAAC; 5' fluorescein label, further chemistry not given here) [5′ fluorescein-labeled 18 bp complement DNA hybridized to 30 bp parent DNA on 50 nm dextran-coated magnetite nanoparticles; model drug]",–,–,approximately six-fold,corresponding release of fluorescein

# — patent publication US20090093551A1, “REMOTELY TRIGGERED RELEASE FROM HEATABLE SURFACES” (priority 2006, published 2009)
